This is an account of results in ChEMBL document CHEMBL1138459 (Bioorg Med Chem Lett, 2009).

The source made the active and inactive calls. No cut-off for these calls is given here.

The target of data set [1] is T1, Peroxisome proliferator-activated receptor alpha (Homo sapiens, UniProt Q07869).
T1 sequence (Q07869 whole entry): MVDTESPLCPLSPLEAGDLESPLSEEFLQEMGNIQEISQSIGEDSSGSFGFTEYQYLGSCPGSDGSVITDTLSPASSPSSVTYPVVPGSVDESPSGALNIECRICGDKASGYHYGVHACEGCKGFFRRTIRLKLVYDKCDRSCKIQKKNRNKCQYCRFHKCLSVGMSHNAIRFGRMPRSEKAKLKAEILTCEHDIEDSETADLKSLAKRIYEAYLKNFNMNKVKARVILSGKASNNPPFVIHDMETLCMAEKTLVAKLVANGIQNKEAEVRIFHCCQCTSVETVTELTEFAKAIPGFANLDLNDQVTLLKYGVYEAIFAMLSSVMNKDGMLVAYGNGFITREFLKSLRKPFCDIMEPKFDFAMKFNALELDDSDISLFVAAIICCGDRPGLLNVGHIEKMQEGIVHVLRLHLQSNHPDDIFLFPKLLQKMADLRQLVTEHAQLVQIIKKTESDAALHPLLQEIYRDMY

For data set [2], the target named is T1, Peroxisome proliferator-activated receptor alpha. Description: biochemical.
Data set [3] relates to Rattus norvegicus. Description: Antidiabetic activity in Zucker fa/fa rat assessed as glucose infusion rate at 3 mg/kg/day after 7 days by hyperinsulinemic-euglycemic clamp study. The format is functional, organism-based.
In data set [4] the test system is Rattus norvegicus. Description: Antidiabetic activity in Zucker fa/fa rat assessed as HOMA-insulin resistance index at 3 mg/kg/day. The format is functional, organism-based.
Data set [5] has as its system Mus musculus. Briefly: Antidiabetic activity in db/db mouse diabetic model assessed as reduction in post prandial blood glucose level at 3 mg/kg/day. The format is functional, organism-based.
The subject of data set [6] is Mus musculus. Briefly: Antidiabetic activity in db/db mouse diabetic model assessed as reduction in post prandial blood glucose level at 0.3 mg/kg/day. It is filed as functional, organism-based.
Data set [7] concerns the target T2, Peroxisome proliferator-activated receptor delta (Homo sapiens, UniProt Q03181).
T2 sequence (Q03181 whole entry): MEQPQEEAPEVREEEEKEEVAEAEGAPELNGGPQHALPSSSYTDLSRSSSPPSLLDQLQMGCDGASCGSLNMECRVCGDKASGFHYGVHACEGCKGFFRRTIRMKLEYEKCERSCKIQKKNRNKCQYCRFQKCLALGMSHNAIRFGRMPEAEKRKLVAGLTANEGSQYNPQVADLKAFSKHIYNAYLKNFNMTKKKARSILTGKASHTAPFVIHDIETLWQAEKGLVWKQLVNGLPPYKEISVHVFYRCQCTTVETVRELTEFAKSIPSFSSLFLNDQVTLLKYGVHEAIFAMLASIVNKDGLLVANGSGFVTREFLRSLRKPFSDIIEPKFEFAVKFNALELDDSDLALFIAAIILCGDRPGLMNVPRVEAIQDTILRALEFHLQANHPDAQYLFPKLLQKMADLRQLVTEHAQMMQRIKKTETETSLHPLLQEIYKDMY

The nature of data set [8]: Total clearance in rat. It is filed as ADME, organism-based. Conditions: in vivo.
For data set [9], the system named is Rattus norvegicus. Description: Antidiabetic activity in Zucker fa/fa rat assessed as fasting plasma insulin level at 1 mg/kg/day. The format is functional.
Data set [10] concerns Mus musculus. Briefly: Increase in plasma HDLC level in human ApoA1 transgenic mouse model at 0.3 mg/kg/day after 12 days by FPLC method. The format is functional, organism-based.
A short description of data set [11]: Bioavailability in rat. It is filed as ADME, organism-based. Conditions: in vivo.
The subject of data set [12] is Rattus norvegicus. Briefly: Antidiabetic activity in Zucker fa/fa rat assessed as glucose infusion rate at 1 mg/kg/day after 7 days by hyperinsulinemic-euglycemic clamp study. The format is functional, organism-based.
For data set [13], the system named is Mus musculus. Briefly: Increase in plasma HDLC level in human ApoA1 transgenic mouse model at 3 mg/kg/day after 12 days by FPLC method. It is filed as functional, organism-based.
Data set [14] deals with Mus musculus. Description: Antidiabetic activity in overnight fasted db/db mouse diabetic model assessed as reduction in blood glucose level at 0.3 mg/kg/day, po chronically for 12 days challenged with glucose 24 hrs post last dose by OGTT. It is filed as functional, organism-based.
Data set [15] can be described thus: Total clearance in cynomolgus monkey. The following applies: in vivo. It is filed as ADME, organism-based, Macaca fascicularis.
Data set [16] is described as follows: Half life in rat. It is filed as ADME, organism-based. Conditions: in vivo.
The subject of data set [17] is Rattus norvegicus. Description: Antidiabetic activity in Zucker fa/fa rat assessed as HOMA-insulin resistance index at 1 mg/kg/day. It is filed as functional, organism-based.
A short description of data set [18]: Bioavailability in cynomolgus monkey. Conditions: in vivo. The format is ADME, organism-based, Macaca fascicularis.
Data set [19] concerns Mus musculus. Description: Antidiabetic activity in overnight fasted db/db mouse diabetic model assessed as reduction in blood glucose level at 3 mg/kg/day, po chronically for 12 days challenged with glucose 24 hrs post last dose by OGTT. It is filed as functional, organism-based.
A short description of data set [20]: Half life in cynomolgus monkey. It is filed as ADME, organism-based, Macaca fascicularis. The following applies: in vivo.
Data set [21] has as its system Rattus norvegicus. Description: Antidiabetic activity in Zucker fa/fa rat assessed as fasting plasma insulin level at 10 mg/kg/day. The format is functional.
In data set [22] the test system is Rattus norvegicus. Description: Antidiabetic activity in Zucker fa/fa rat assessed as glucose infusion rate at 10 mg/kg/day after 7 days by hyperinsulinemic-euglycemic clamp study. The format is functional, organism-based.
The test system of data set [23] is Rattus norvegicus. Briefly: Antidiabetic activity in Zucker fa/fa rat assessed as HOMA-insulin resistance index at 10 mg/kg/day. The format is functional, organism-based.
Data set [24] deals with Mus musculus. Description: Increase in plasma HDLC level in human ApoA1 transgenic mouse model at 10 mg/kg/day after 12 days by FPLC method. The format is functional, organism-based.
Data set [25] deals with Mus musculus. Briefly: Increase in plasma HDLC level in human ApoA1 transgenic mouse model at 300 mg/kg/day after 12 days by FPLC method. It is filed as functional, organism-based.

Usually EC50 stands for the concentration that produces a half-maximal response. By IC50 is commonly meant the point on the concentration scale where inhibition reaches its midpoint. With `CO[C@@H](Cc1ccc(OCCc2nc(-c3ccc(C(C)C)cc3)oc2C)c2ccsc12)C(=O)O`, a half-maximal response in [1] (EC50) required 0.02 µM. This molecule had an IC50 in data set [2] of 0.045 µM.
In data set [1], `Cc1oc(-c2ccccc2)nc1CCOc1ccc(C[C@H](OCC(F)(F)F)C(=O)O)c2sccc12` returned an EC50 of 0.555 µM. In [2], this molecule returned an IC50 of 0.06 µM.
Taken in the same sequence, the figures for `Cc1oc(-c2ccc(C(C)C)cc2)nc1CCOc1ccc(C[C@H](OCC2CC2)C(=O)O)c2sccc12` were 0.016 µM and 0.037 µM.
As to `CN(CCOc1ccc(CC2SC(=O)NC2=O)cc1)c1ccccn1` (stereo not given), the outcome in data set [3], in data set [4], in data set [5] and in data set [6] was Active.
In data set [1], `CCO[C@@H](Cc1ccc(OCCc2nc(-c3ccc(C(F)(F)F)cc3)oc2C)c2ccsc12)C(=O)O` returned an EC50 of 0.089 µM. Moreover, in data set [2], half-maximal inhibition (IC50) was put at 0.063 µM.
Taken in the same sequence, the figures for `CCO[C@@H](Cc1ccc(OCCc2nc(-c3ccccc3)oc2C)c2sccc12)C(=O)O` were 0.058 µM and 0.333 µM.
Taken in the same sequence, the figures for `CCO[C@@H](Cc1ccc(OCCc2nc(-c3ccc(C(F)(F)F)cc3)oc2C)c2ccccc12)C(=O)O` were 0.011 µM and 0.905 µM.
On the same counts, the results for `CCCOC(Cc1ccc(OCCc2nc(-c3ccccc3)oc2C)c2ccccc12)C(=O)O` (racemic) are 0.087 µM and 0.069 µM.
As to `CO[C@@H](Cc1ccc(OCCc2nc(-c3ccc(C(F)(F)F)cc3)oc2C)c2ccsc12)C(=O)O`, the EC50 in data set [1] came to 0.002 µM. Further, the IC50 in [2] is 0.053 µM.
On to `CO[C@@H](Cc1ccc(OCCc2nc(-c3ccccc3)oc2C)c2sccc12)C(=O)O`, for which the EC50 in [1] was determined as 0.157 µM; in data set [7], 0.137 µM. Also, in [2], inhibition was half-maximal at 0.028 µM (IC50).
In general, clearance refers to the rate of elimination divided by the concentration. As usually defined, the bioavailability is dose-corrected exposure relative to a reference, in per cent. In general, half-life refers to how long it takes for the measured level to halve. For the molecule `CO[C@@H](Cc1ccc(OCCc2nc(-c3ccccc3)oc2C)c2ccsc12)C(=O)O` [ALEGLITAZAR], the clearance in data set [8] worked out at 6.2 mL/min/kg; in data set [15], 1.6 mL/min/kg. Also, the result in data set [5], in data set [10], in data set [12], in data set [13], in data set [6] and in [14] was Active. Further, the outcome in data set [17] and in data set [19] was Active. Also, in [9], the Activity amounted to 773 ng/mL. Further, the bioavailability turned out to be 70% in data set [11] and 68% in [18]. Further, the values for the half-life in data set [16] and in data set [20] were 4 h and 12.9 h, respectively.
`Cc1oc(-c2ccccc2)nc1CCOc1ccc(CC(OCC(C)C)C(=O)O)c2sccc12` (racemic) displayed a concentration for a half-maximal effect (EC50) in data set [1] of 0.048 µM. In data set [2], this molecule returned an IC50 of 0.239 µM.
In the case of `CC(=O)c1ccccc1N[C@@H](Cc1ccc(OCCc2nc(-c3ccccc3)oc2C)cc1)C(=O)O`, in [21], the Activity amounted to 776 ng/mL. For the same molecule, a half-maximal response in [1] (EC50) required 0.284 µM. The molecule also showed a concentration for half-maximal inhibition (IC50) in data set [2] of 0.633 µM. In addition, the result in data set [22] and in data set [23] was Active. In [24], the result was inactive.
As to `CCO[C@@H](Cc1ccc(OCCc2nc(-c3ccccc3)oc2C)c2ccccc12)C(=O)O`, the EC50 was determined as 0.011 µM in data set [1] and 0.169 µM in [7]. This molecule came in with an IC50 in data set [2] of 0.198 µM.
In the case of `CC(C)(Oc1ccc(C(=O)c2ccc(Cl)cc2)cc1)C(=O)O` [FENOFIBRIC ACID], the result in [25] was Active. In addition, the EC50 in [1] was 69 µM. Also, the concentration for half-maximal inhibition (IC50) in [2] is 106 µM.
Take `CCO[C@@H](Cc1ccc(OCCc2nc(-c3ccc(-c4ccccc4)cc3)oc2C)c2ccsc12)C(=O)O`: in [1], the concentration for a half-maximal effect (EC50) is 0.167 µM. This molecule returned an IC50 in data set [2] of 0.194 µM.
Taken in the same sequence, the figures for `COC(Cc1ccc(OCCc2nc(-c3ccccc3C)oc2C)c2ccccc12)C(=O)O` (racemic) were 0.123 µM and 0.432 µM.
Taken in the same sequence, the figures for `CCCCCCOC(Cc1ccc(OCCc2nc(-c3ccccc3)oc2C)c2ccsc12)C(=O)O` (racemic) were 0.249 µM and 0.12 µM.
For the molecule `Cc1oc(-c2ccc(-c3ccccc3)cc2)nc1CCOc1ccc(C[C@H](OCC(F)(F)F)C(=O)O)c2ccccc12`, the EC50 in data set [1] stood at 0.987 µM. Also, the IC50 in data set [2] is 0.429 µM.
Taken in the same sequence, the figures for `Cc1oc(-c2ccccc2)nc1CCOc1ccc(C[C@H](OCC2CC2)C(=O)O)c2sccc12` were 0.027 µM and 0.021 µM.
Regarding `COc1cc(OC)cc(-c2nc(CCOc3ccc(C[C@H](OC)C(=O)O)c4sccc34)c(C)o2)c1`, the EC50 in [1] stood at 0.061 µM; in data set [7], 0.678 µM. It took 0.048 µM to reach half-maximal inhibition in [2] (IC50).
